Legend:
[1] = biological target: T1, Transient receptor potential cation channel subfamily V member 4 (Homo sapiens, UniProt Q9HBA0); test: Antagonist activity at human TRPV4
[2] = biological target: T1, Transient receptor potential cation channel subfamily V member 4; test: Antagonist activity at TRPV4 (unknown origin)
[3] = biological target: Transient receptor potential cation channel subfamily V member 4 (Mus musculus, UniProt Q9EPK8); test: Agonist activity at mouse TRPV4
Chain of Transient receptor potential cation channel subfamily V member 4 (Mus musculus, UniProt Q9EPK8) (Q9EPK8 whole entry): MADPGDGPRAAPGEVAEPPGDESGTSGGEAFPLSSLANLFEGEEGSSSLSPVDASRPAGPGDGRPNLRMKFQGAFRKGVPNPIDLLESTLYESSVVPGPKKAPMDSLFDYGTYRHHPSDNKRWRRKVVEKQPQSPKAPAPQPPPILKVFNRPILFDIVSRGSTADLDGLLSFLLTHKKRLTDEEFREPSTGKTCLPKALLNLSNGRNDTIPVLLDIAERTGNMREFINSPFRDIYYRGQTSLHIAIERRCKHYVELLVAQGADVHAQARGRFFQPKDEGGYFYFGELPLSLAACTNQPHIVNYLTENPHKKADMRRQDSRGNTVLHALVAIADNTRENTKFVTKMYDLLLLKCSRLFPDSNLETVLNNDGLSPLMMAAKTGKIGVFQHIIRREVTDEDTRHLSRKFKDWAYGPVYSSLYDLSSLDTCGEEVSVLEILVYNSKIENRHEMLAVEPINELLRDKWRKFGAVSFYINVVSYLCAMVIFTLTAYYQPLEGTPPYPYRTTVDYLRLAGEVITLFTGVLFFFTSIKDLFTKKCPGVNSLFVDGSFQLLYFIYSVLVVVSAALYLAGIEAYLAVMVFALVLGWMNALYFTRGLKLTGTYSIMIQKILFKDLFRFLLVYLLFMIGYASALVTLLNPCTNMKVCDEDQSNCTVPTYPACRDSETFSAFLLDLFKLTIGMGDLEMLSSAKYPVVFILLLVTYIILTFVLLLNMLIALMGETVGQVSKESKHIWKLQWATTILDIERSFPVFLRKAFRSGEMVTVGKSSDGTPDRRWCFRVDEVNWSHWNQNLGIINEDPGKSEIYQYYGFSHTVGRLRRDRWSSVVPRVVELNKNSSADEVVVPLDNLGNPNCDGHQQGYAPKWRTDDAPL

T1 sequence (Q9HBA0 whole entry): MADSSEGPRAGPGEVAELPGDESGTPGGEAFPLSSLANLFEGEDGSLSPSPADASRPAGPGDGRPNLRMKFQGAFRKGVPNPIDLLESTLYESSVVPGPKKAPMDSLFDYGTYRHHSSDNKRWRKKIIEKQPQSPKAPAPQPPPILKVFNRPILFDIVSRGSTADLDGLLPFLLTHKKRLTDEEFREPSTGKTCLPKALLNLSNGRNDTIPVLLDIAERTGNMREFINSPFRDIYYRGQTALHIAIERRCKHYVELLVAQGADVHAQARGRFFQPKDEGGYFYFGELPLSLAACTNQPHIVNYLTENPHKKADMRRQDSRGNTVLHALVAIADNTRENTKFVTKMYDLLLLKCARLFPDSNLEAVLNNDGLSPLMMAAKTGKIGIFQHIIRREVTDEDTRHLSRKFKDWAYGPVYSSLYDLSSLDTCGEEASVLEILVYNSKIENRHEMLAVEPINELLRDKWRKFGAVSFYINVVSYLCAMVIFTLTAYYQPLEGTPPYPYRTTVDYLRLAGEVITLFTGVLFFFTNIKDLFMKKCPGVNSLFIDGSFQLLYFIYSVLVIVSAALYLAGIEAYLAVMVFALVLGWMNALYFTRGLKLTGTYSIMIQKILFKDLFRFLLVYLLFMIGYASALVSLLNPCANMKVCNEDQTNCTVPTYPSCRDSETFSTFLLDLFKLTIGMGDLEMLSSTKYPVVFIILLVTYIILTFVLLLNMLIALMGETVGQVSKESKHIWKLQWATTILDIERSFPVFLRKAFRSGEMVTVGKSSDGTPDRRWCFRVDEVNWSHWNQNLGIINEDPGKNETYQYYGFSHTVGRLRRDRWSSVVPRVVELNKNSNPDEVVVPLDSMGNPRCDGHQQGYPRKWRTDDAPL

Row | Structure (SMILES) | IC50 [1] [µM] | EC50 [3] [µM] | further results
1 | N#Cc1ccc(OCC2(O)CN(S(=O)(=O)c3ccc(Cl)cc3Cl)C2)cc1F | – | – | IC50 [2]: 0.004 µM
2 | O=[N+]([O-])c1cc(Cl)ccc1S(=O)(=O)N1CCN(Cc2ccccc2)CC1 | – | 0.77 | –
3 | CCCCC/C=C\C/C=C\C/C=C\CC1OC1CCCC(=O)O (stereo unspecified) | – | 0.15 | –

Now from value to molecule, other results behind:

Row | IC50 [1] [µM] | EC50 [3] [µM] | Structure (SMILES) | further results
4 | 70 | – | C/C=C/C=C/c1c(CC=C(C)C)cc(CC=C(C)C)c(O)c1CO | –
5 | 81.8 | – | C/C=C(\C)[C@H]1C(C)=C[C@H]2C[C@@H](C)C[C@@H](C(=O)O)[C@@H]2[C@@]1(C)C(=O)c1cccnc1 | –
6 | 0.0508 | – | C/C=C/C=C/c1c(CC=C(C)C)cc2c(c1[C@H](Nc1ccccc1C(=O)O)[C@H]1c3c(CC=C(C)C)cc4c(c3[C@@H]3OC(=O)c5ccccc5N3[C@H]1/C=C/C)OC(C)(C)[C@H](O)C4=O)OC(C)(C)[C@@H](O)C2=O (racemic) | –

— ChEMBL document CHEMBL4627288, “Recent advances in TRPV4 agonists and antagonists” (Bioorg Med Chem Lett, 2020)
